Assay results published in ChEMBL document CHEMBL1212907, “Activity of physalin F in a collagen-induced arthritis model” (J Nat Prod, 2010).
The source made the active and inactive calls. The rule behind the calls is not given here.

Tests used:
Assay type in all cases: functional, organism-based
[1] = system: Mus musculus; assay: Immunomodulatory activity in ip dosed mouse lung assessed as reduction of eosinophils in bronchoalveolar lavage fluid
[2] = system: Mus musculus; assay: Immunomodulatory activity in ip dosed mouse lung assessed as reduction in inhibition of ovalbumin-induced intense cell filtration
[3] = species: Mus musculus; assay: Immunomodulatory activity in mouse assessed as reduction in ovalbumin-induced TH2 cytokine secretion by ELISA
[4] = system: Mus musculus; assay: Antiinflammatory activity against collagen-induced arthritis in po dosed mouse assessed as inhibition of paw edema at 20 mg/kg, po after 20 days; parameters: dose 20 mg/kg
[5] = system: Mus musculus; assay: Antiinflammatory activity against collagen-induced arthritis in po dosed mouse assessed as synovial cell hyperplasia after 20 days
[6] = system: Mus musculus; assay: Immunomodulatory activity in ip dosed mouse lung assessed as reduction in modulation of mucus production at 60 mg/kg; parameters: dose 60 mg/kg
[7] = system: Mus musculus; assay: Immunomodulatory activity in mouse assessed as inhibition of allergic airway inflammation at 60 mg/kg, ip; parameters: dose 60 mg/kg

Structure (SMILES) | Activity [1] | inhibition [2] | Activity [3] | inhibition [4] | Activity [5] | Activity [6] | inhibition [7]
C[C@@H]1C[C@H]2[C@@H]3CCC4=CC(=O)C=C[C@]4(C)[C@@]3(F)[C@@H](O)C[C@]2(C)[C@@]1(O)C(=O)CO | Active |  |  |  |  |  | 
C[C@@]12C[C@H]3OC(=O)[C@@H]1CO[C@]14O[C@]5([C@H]2C1=O)[C@@](O)(CC[C@H]1[C@H]4C[C@H]2O[C@]24CC=CC(=O)[C@]14C)C(=O)O[C@@]35C | inactive | Active | inactive | Active | Active | inactive | inactive
